In paper PMC10215740 (Antibiotics, 2023):
Values joined by “and” are separate entries in the source; they are usually repeats but may differ in a detail not shown here. Identical values can stand only once.

How the values were obtained:
[1] = Time with concentration above MIC targets (T>MIC, %T>MIC) in plasma and spinal tissues, microdialysis porcine model; assay type: in vivo, pigs (Danish Landrace breed)
Source text: (§1) Eight female pigs (Danish Landrace breed, weight 78–82 kg) were included. In general anaesthesia, microdialysis catheters were placed in the third cervical (C3) vertebral cancellous bone, the C3-C4 intervertebral disc, paravertebral muscle, and adjacent subcutaneous tissue. Plasma samples were obtained as a reference. Abiding by the recommendations of replacement, reduction, and refinement (the 3 Rs) when conducting animal studies, the data sampled in extrathecal spinal tissues in the present study are derived from animals where lower extremity data were reported previously. […] The dose and mode of administration used were in accordance with the clinical practice at our institution. Sampling was conducted for 8 h.
(§2) (Figure 3). The microdialysis catheters used were CMA 70 (membrane length 10 and 20 mm, molecular mass cut of 20 kDa; M Dialysis AB, Stockholm, Sweden). Through an anterolateral approach, the C2, C3, and C4 vertebrae were exposed. Using a 2 mm drill, a 25 mm drill hole was made into the C3 vertebra in which a 20 mm microdialysis catheter was placed. Afterward, with aid from a splitable microdialysis introducer (M Dialysis AB, Stockholm, Sweden), a 10 mm microdialysis catheter was positioned in the C3-C4 intervertebral disc, and a 20 mm microdialysis catheter was positioned in both the exposed paravertebral muscle and adjacent subcutaneous tissue. Correct positioning of the microdialysis catheters in the vertebra and the intervertebral disc was verified by fluoroscopy. The catheters were connected to precision pumps (CMA 107; M Dialysis AB, Stockholm, Sweden) and perfused with 0.9% NaCl solution at a flow rate of 1 μL/min.
(§3) After catheter placement, microdialysis sampling was initiated with a tissue-equilibration period of 20 min prior to the antibiotic intravenous administration. […] Microdialysates were collected at 30 min intervals for the first 4 h, and at 60 min intervals for the last 4 h, resulting in a total of 12 samples during an 8-h dosing interval. At the midpoint of each sampling interval, blood samples were collected from a central venous catheter for reference. The blood samples were stored at 5 °C for a maximum of 6 h before being centrifuged (room temperature, 3000 g, 10 min), and plasma aliquots were made. […] The recovery sample was later used for individual catheter calibration and calculation of absolute tissue concentrations. All collected samples were stored at –80 °C until the chemical analyses were performed; microdialysate analyses were performed at the Department of Forensic Medicine, Aarhus University, Denmark, and plasma aliquot analyses were performed at the Department of Clinical Biochemistry, Aarhus University Hospital, Aarhus, Denmark.
(§4) The free drug concentration of meropenem in plasma was quantified using ultra-high performance liquid chromatography (UHPLC).
(§5) The area under the concentration–time curves from zero to the last measured value (AUC0-8h) was calculated using the trapezoidal rule. The Cmax was calculated as the maximum concentration of all the recorded concentrations, and the Tmax was calculated as the time to achieve Cmax. As a measure of tissue penetration, the ratio of tissue AUC to plasma AUC (AUCtissue/AUCplasma) was calculated. A general comparison of the T>MIC and the pharmacokinetic parameters was conducted using repeated measurements of the analysis of variance (ANOVA), followed by pairwise comparisons made by linear regression. Because of a small sample size, it was necessary to conduct a correction for the degrees of freedom by the Kenward–Roger approximation method. Using the visual diagnosis of residuals, fitted values and estimates of random-effects model assumptions were tested. A p-value of less than 0.05 was considered significant.

[2] = Plasma and spinal tissue pharmacokinetics by microdialysis after single-dose co-administered i.v. meropenem and vancomycin; settings: free drug, single i.v. 1000 mg meropenem + 1000 mg vancomycin co-administered, mean (95%CI)
Source text: as §1, §2, §3, §4, §5

[3] = intervertebral disc, microdialysis, pigs, one disc catheter malfunctioned
[4] = paravertebral muscle, microdialysis, pigs n = 8
[5] = subcutaneous tissue, microdialysis, pigs n = 8
[6] = vertebral cancellous bone, microdialysis, pigs n = 8

C[C@@H](O)[C@H]1C(=O)N2C(C(=O)O)=C(S[C@@H]3CN[C@H](C(=O)N(C)C)C3)[C@H](C)[C@H]12 [Meropenem, meropenem]
Mean T>MIC (min) ([1]; meropenem MIC 0.125 μg/mL (low), C3-C4 intervertebral disc, microdialysis, UHPLC-MS/MS, pigs, one disc catheter malfunctioned, single i.v. 1000 mg co-administered with vancomycin, mean): 366 (335; 396) min
Mean T>MIC (min) ([1]; meropenem MIC 0.125 μg/mL (low), C3 vertebral cancellous bone, microdialysis, UHPLC-MS/MS, pigs n = 8, single i.v. 1000 mg co-administered with vancomycin, mean): 244 (215; 272) min
Mean %T>MIC ([1]; meropenem MIC 0.125 μg/mL (low), intervertebral disc, microdialysis, percentage of dosing interval of 450 min, pigs, single i.v. 1000 mg): 81 (74; 88) %
Mean T>MIC (min) ([1]; meropenem MIC 0.125 μg/mL (low), paravertebral muscle, microdialysis, UHPLC-MS/MS, pigs n = 8, single i.v. 1000 mg co-administered with vancomycin, mean): 285 (256; 314) min
Mean %T>MIC ([1]; meropenem MIC 0.125 μg/mL (low), paravertebral muscle, microdialysis, percentage of dosing interval of 450 min, pigs n = 8, single i.v. 1000 mg): 63 (57; 70) %
Mean T>MIC ([1]; meropenem MIC 0.125 μg/mL (low), plasma, free drug, UHPLC, pigs n = 8, single i.v. 1000 mg over 10 min co-administered with vancomycin 1000 mg, linear interpolation, mean): 406 min
Mean %T>MIC ([1]; meropenem MIC 0.125 μg/mL (low), plasma, percentage of dosing interval of 450 min, pigs n = 8, single i.v. 1000 mg co-administered with vancomycin): 90%
Mean T>MIC (min) ([1]; meropenem MIC 0.125 μg/mL (low), subcutaneous tissue, microdialysis, UHPLC-MS/MS, pigs n = 8, single i.v. 1000 mg co-administered with vancomycin, mean): 334 (305; 363) min
Mean %T>MIC ([1]; meropenem MIC 0.125 μg/mL (low), subcutaneous tissue, microdialysis, percentage of dosing interval of 450 min, pigs n = 8, single i.v. 1000 mg): 74 (68; 81) %
Mean %T>MIC ([1]; meropenem MIC 0.125 μg/mL (low), vertebral cancellous bone, microdialysis, percentage of dosing interval of 450 min, pigs n = 8, single i.v. 1000 mg): 54 (48; 61) %
%T>MIC ([1]; meropenem low MIC target (0.125 µg/mL), all the investigated compartments, 8-h dosing interval, pigs, single i.v. 1000 mg): ≥ 54%
%T>MIC ([1]; pig, in vivo): 25–36%
Mean %T>MIC ([1]; pig, in vivo): 36 (33; 40) %
Mean T>MIC (min) ([1]; pig, in vivo): 163 (147; 180) min
%T>MIC ([1]; pig, in vivo, iv): ≤ 40%
Mean %T>MIC ([1]; pig, in vivo, iv): 40% and 26 (22; 30) % and 25 (22; 29) % and 35 (31; 39) %
Mean T>MIC ([1]; pig, in vivo, iv): 181 min
Mean T>MIC (min) ([1]; pig, in vivo, iv): 118 (101; 134) min and 114 (98; 131) min and 158 (141; 175) min
%T>MIC ([1]; pig, in vivo, iv, listed as meropenem): 25–90%

CN[C@H](CC(C)C)C(=O)N[C@H]1C(=O)N[C@@H](CC(N)=O)C(=O)N[C@H]2C(=O)N[C@H]3C(=O)N[C@H](C(=O)N[C@H](C(=O)O)c4cc(O)cc(O)c4-c4cc3ccc4O)[C@H](O)c3ccc(c(Cl)c3)Oc3cc2cc(c3O[C@@H]2O[C@H](CO)[C@@H](O)[C@H](O)[C@H]2O[C@H]2C[C@](C)(N)[C@H](O)[C@H](C)O2)Oc2ccc(cc2Cl)[C@H]1O [Vancomycin, vancomycin]
AUC0-8h [2, 3]: 877 (−325; 2079) min μg/mL
Cmax [2, 3]: 3 (−3; 10) μg/mL
AUC0-8h [2, 4]: 2538 (1379; 3698) min μg/mL
Cmax [2, 4]: 11 (5; 17) μg/mL
Cmax ([2]; plasma, pigs n = 8): 35 (29; 41) μg/mL
AUC0-8h [2, 5]: 3767 (2608; 4927) min μg/mL
Cmax [2, 5]: 17 (11; 23) μg/mL
AUC0-8h [2, 6]: 1698 (539; 2858) min μg/mL
Cmax [2, 6]: 6 (0.4; 12) μg/mL
Mean %T>MIC ([1]; vancomycin MIC 1 μg/mL (low), intervertebral disc, microdialysis, percentage of dosing interval of 450 min, pigs, single i.v. 1000 mg): 69%
Mean T>MIC ([1]; vancomycin MIC 1 μg/mL (low), intervertebral disc, microdialysis, pigs, one disc catheter malfunctioned, single i.v. 1000 mg co-administered with meropenem, mean): 311 min
Mean %T>MIC ([1]; vancomycin MIC 1 μg/mL (low), paravertebral muscle, microdialysis, percentage of dosing interval of 450 min, pigs n = 8, single i.v. 1000 mg): 96%
Mean T>MIC ([1]; vancomycin MIC 1 μg/mL (low), paravertebral muscle, microdialysis, pigs n = 8, single i.v. 1000 mg co-administered with meropenem, mean): 433 min
Mean T>MIC ([1]; vancomycin MIC 1 μg/mL (low), plasma, free drug, enzyme immunoassay, pigs n = 8, single i.v. 1000 mg over 100 min co-administered with meropenem 1000 mg, linear interpolation, mean): 449 min
Mean %T>MIC ([1]; vancomycin MIC 1 μg/mL (low), plasma, percentage of dosing interval of 450 min, pigs n = 8, single i.v. 1000 mg): 100%
Mean T>MIC ([1]; vancomycin MIC 1 μg/mL (low), subcutaneous tissue, microdialysis, UHPLC-MS/MS, pigs n = 8, single i.v. 1000 mg co-administered with meropenem, mean): 435 min
Mean %T>MIC ([1]; vancomycin MIC 1 μg/mL (low), subcutaneous tissue, microdialysis, percentage of dosing interval of 450 min, pigs n = 8, single i.v. 1000 mg): 97%
Mean %T>MIC ([1]; vancomycin MIC 1 μg/mL (low), vertebral cancellous bone, microdialysis, percentage of dosing interval of 450 min, pigs n = 8, single i.v. 1000 mg): 86%
Mean T>MIC ([1]; vancomycin MIC 1 μg/mL (low), vertebral cancellous bone, microdialysis, pigs n = 8, single i.v. 1000 mg co-administered with meropenem, mean): 388 min
Mean %T>MIC ([1]; vancomycin MIC 4 μg/mL (high), intervertebral disc, microdialysis, percentage of dosing interval of 450 min, pigs, single i.v. 1000 mg): 10%
Mean T>MIC ([1]; vancomycin MIC 4 μg/mL (high), intervertebral disc, microdialysis, pigs, one disc catheter malfunctioned, single i.v. 1000 mg co-administered with meropenem, mean): 45 min
Mean T>MIC ([1]; vancomycin MIC 4 μg/mL (high), paravertebral muscle, microdialysis, pigs n = 8, single i.v. 1000 mg co-administered with meropenem, mean): 306 min
Mean T>MIC ([1]; vancomycin MIC 4 μg/mL (high), plasma, free drug, pigs n = 8, single i.v. 1000 mg co-administered with meropenem, mean): 446 min
Mean %T>MIC ([1]; vancomycin MIC 4 μg/mL (high), plasma, percentage of dosing interval of 450 min, pigs n = 8, single i.v. 1000 mg): 99%
Mean %T>MIC ([1]; vancomycin MIC 4 μg/mL (high), subcutaneous tissue, microdialysis, percentage of dosing interval of 450 min, pigs n = 8, single i.v. 1000 mg): 81%
Mean T>MIC ([1]; vancomycin MIC 4 μg/mL (high), subcutaneous tissue, microdialysis, pigs n = 8, single i.v. 1000 mg co-administered with meropenem, mean): 365 min
Mean %T>MIC ([1]; vancomycin MIC 4 μg/mL (high), vertebral cancellous bone, microdialysis, percentage of dosing interval of 450 min, pigs n = 8, single i.v. 1000 mg): 47%
Mean T>MIC ([1]; vancomycin MIC 4 μg/mL (high), vertebral cancellous bone, microdialysis, pigs n = 8, single i.v. 1000 mg co-administered with meropenem, mean): 214 min
%T>MIC ([1]; vancomycin high MIC target (4 µg/mL), all solid tissue compartments, 8-h dosing interval, pigs, single i.v. 1000 mg): ≤ 81%
%T>MIC ([1]; vancomycin low MIC target (1 µg/mL), all the investigated compartments, 8-h dosing interval, pigs, single i.v. 1000 mg): ≥ 69%
%T>MIC ([1]; vancomycin, range across all targeted tissues and plasma and both MIC targets (1 and 4 µg/mL), pigs, single i.v. 1000 mg): 10–100%
